Columns and labels:
Solubility = assay type: physicochemical
Staph. aureus 712 = assay: MIC, agar-dilution method in Mueller-Hinton agar; assay type: cell-based; conditions: Staphylococcus aureus, methicillin resistant
Text: (§1) Compound M901809 and its acid hydrolysis product M901809H are active against gram-positive bacteria.
(§2) Strains 5 to 26 are methicillin resistant staphylococci.

Staph. epidermidis 607 = assay: MIC, agar-dilution method in Mueller-Hinton agar; assay type: cell-based; conditions: Staphylococcus epidermidis, methicillin resistant
Text: as §1, §2

Staph. epidermidis 109 = assay: MIC, agar-dilution method in Mueller-Hinton agar; assay type: cell-based; conditions: Staphylococcus epidermidis, methicillin resistant
Text: as §1, §2

Staph. aureus 725 = assay: MIC, agar-dilution method in Mueller-Hinton agar; assay type: cell-based; conditions: Staphylococcus aureus, methicillin resistant
Text: as §1, §2

Staph. aureus 710 = assay: MIC, agar-dilution method in Mueller-Hinton agar; assay type: cell-based; conditions: Staphylococcus aureus, methicillin resistant
Text: as §1, §2

Staph. haemolyticus 712 = assay: MIC, agar-dilution method in Mueller-Hinton agar; assay type: cell-based; conditions: Staphylococcus haemolyticus
Text: as §1, §2

Staph. aureus C 31153 = assay: MIC, agar-dilution method in Mueller-Hinton agar; assay type: cell-based; conditions: Staphylococcus aureus, C31153, methicillin resistant
Text: as §1, §2

Staph. aureus 690 = assay: MIC, agar-dilution method in Mueller-Hinton agar; assay type: cell-based; conditions: Staphylococcus aureus, methicillin resistant
Text: as §1, §2

Staph. epidermidis 291 = assay: MIC, agar-dilution method in Mueller-Hinton agar; assay type: cell-based; conditions: Staphylococcus epidermidis, methicillin resistant
Text: as §1, §2

Staph. aureus 011UC5 = assay: MIC, agar-dilution method in Mueller-Hinton agar; assay type: cell-based; conditions: Staphylococcus aureus, methicillin resistant
Text: as §1, §2

Staph. epidermidis 178 = assay: MIC, agar-dilution method in Mueller-Hinton agar; assay type: cell-based; conditions: Staphylococcus epidermidis, methicillin resistant
Text: as §1, §2

Staph. aureus E 121 = assay: MIC, agar-dilution method in Mueller-Hinton agar; assay type: cell-based; conditions: Staphylococcus aureus, E121, methicillin resistant
Text: as §1, §2

Staph. haemolyticus 809 = assay: MIC, agar-dilution method in Mueller-Hinton agar; assay type: cell-based; conditions: Staphylococcus haemolyticus
Text: as §1, §2

Staph. aureus 789 = assay: MIC, agar-dilution method in Mueller-Hinton agar; assay type: cell-based; conditions: Staphylococcus aureus, methicillin resistant
Text: as §1, §2

Staph. aureus 722 = assay: MIC, agar-dilution method in Mueller-Hinton agar; assay type: cell-based; conditions: Staphylococcus aureus, methicillin resistant
Text: as §1, §2

Staph. aureus 694 = assay: MIC, agar-dilution method in Mueller-Hinton agar; assay type: cell-based; conditions: Staphylococcus aureus, methicillin resistant
Text: as §1, §2

Staph. epidermidis 2 Tub = assay: MIC, agar-dilution method in Mueller-Hinton agar; assay type: cell-based; conditions: Staphylococcus epidermidis, methicillin resistant
Text: as §1, §2

Staph. aureus E 88 = assay: MIC, agar-dilution method in Mueller-Hinton agar; assay type: cell-based; conditions: Staphylococcus aureus, E88, methicillin resistant
Text: as §1, §2

Staph. aureus Co. 1 = assay: MIC, agar-dilution method in Mueller-Hinton agar; assay type: cell-based; conditions: Staphylococcus aureus, methicillin resistant
Text: as §1, §2

Staph. aureus 706 = assay: MIC, agar-dilution method in Mueller-Hinton agar; assay type: cell-based; conditions: Staphylococcus aureus, methicillin resistant
Text: as §1, §2

staphylococci = assay: treatment of experimental animals infected with staphylococci; assay type: in vivo
Staph. aureus 20424 = assay: MIC, agar-dilution method in Mueller-Hinton agar; assay type: cell-based; conditions: Staphylococcus aureus, Erythromycin resistant
Text: as §1
a = Erythromycin resistant

Staph. epidermidis 825 = assay: MIC, agar-dilution method in Mueller-Hinton agar; assay type: cell-based; conditions: Staphylococcus epidermidis, Teicoplanin resistant, methicillin resistant
Text: as §1
(§3) c = Teicoplanin resistant
as §2

Staph. epidermidis 823 = assay: MIC, agar-dilution method in Mueller-Hinton agar; assay type: cell-based; conditions: Staphylococcus epidermidis, Teicoplanin resistant, methicillin resistant
Text: as §1, §3, §2

Ent. faecium van R1 = assay: MIC, agar-dilution method in Mueller-Hinton agar; assay type: cell-based; conditions: Enterococcus faecium, VANR1
Text: as §1, §3
d = Vancomycin resistant

Ent. faecalis UD8b = assay: MIC, agar-dilution method in Mueller-Hinton agar; assay type: cell-based; conditions: Enterococcus faecalis
Text: as §1

Ent. faecalis 782 = assay: MIC, agar-dilution method in Mueller-Hinton agar; assay type: cell-based; conditions: Enterococcus faecalis
Text: as §1

Staph. aureus 3066 = assay: MIC, agar-dilution method in Mueller-Hinton agar; assay type: cell-based; conditions: Staphylococcus aureus
Text: as §1

Ent. faecalis 734 = assay: MIC, agar-dilution method in Mueller-Hinton agar; assay type: cell-based; conditions: Enterococcus faecalis
Text: as §1

Ent. faecalis 3903 = assay: MIC, agar-dilution method in Mueller-Hinton agar; assay type: cell-based; conditions: Enterococcus faecalis
Text: as §1

Ent. faecalis 21777 = assay: MIC, agar-dilution method in Mueller-Hinton agar; assay type: cell-based; conditions: Enterococcus faecalis
Text: as §1

Ent. faecalis Eder = assay: MIC, agar-dilution method in Mueller-Hinton agar; assay type: cell-based; conditions: Enterococcus faecalis
Text: as §1

Ent. faecalis D 65 = assay: MIC, agar-dilution method in Mueller-Hinton agar; assay type: cell-based; conditions: Enterococcus faecalis, D65
Text: as §1

Staph. aureus 209 P = assay: MIC, agar-dilution method in Mueller-Hinton agar; assay type: cell-based; conditions: Staphylococcus aureus
Text: as §1

Staph. aureus 20240 = assay: MIC, agar-dilution method in Mueller-Hinton agar; assay type: cell-based; conditions: Staphylococcus aureus, lactam resistant
Text: as §1

Ent. faecalis 26777 = assay: MIC, agar-dilution method in Mueller-Hinton agar; assay type: cell-based; conditions: Enterococcus faecalis
Text: as §1

streptococci = assay: treatment of experimental animals infected with streptococci; assay type: in vivo
gram-positive bacteria = assay: activity against gram-positive bacteria; assay type: cell-based
Text: as §1

CCCC1Cc2cc3c(c(O)c2C(=O)O1)-c1c(c(OC)c2oc4c(OC5CC(O)C(OC6CC(O)C(OC7CC(OC)C(O)C(C)O7)C(C)O6)C(C)O5)ccc(O)c4c(=O)c2c1O)C(O)C3O (centres unmarked) [M901809]
0.1 µg/mL: MIC (Staph. aureus 725) | MIC (Staph. aureus C 31153) | MIC (Staph. aureus 011UC5) | MIC (Staph. aureus 789) | MIC (Staph. aureus Co. 1) | MIC (Staph. aureus 209 P)
0.8 µg/mL: MIC (Staph. epidermidis 825) | MIC (Ent. faecalis UD8b)
0.4 µg/mL: MIC (Staph. epidermidis 607) | MIC (Staph. epidermidis 109) | MIC (Staph. haemolyticus 809) | MIC (Staph. epidermidis 823) | MIC (Ent. faecalis 782) | MIC (Ent. faecalis 734) | MIC (Ent. faecalis 3903) | MIC (Ent. faecalis 21777) | MIC (Ent. faecalis Eder) | MIC (Ent. faecalis 26777)
0.2 µg/mL: MIC (Staph. aureus 712) | MIC (Staph. aureus 710) | MIC (Staph. haemolyticus 712) | MIC (Staph. aureus 690) | MIC (Staph. epidermidis 291) | MIC (Staph. epidermidis 178) | MIC (Staph. aureus E 121) | MIC (Staph. aureus 722) | MIC (Staph. aureus 694) | MIC (Staph. epidermidis 2 Tub) | MIC (Staph. aureus E 88) | MIC (Staph. aureus 706) | MIC (Staph. aureus 20424) | MIC (Staph. aureus 3066) | MIC (Staph. aureus 20240)
Poor to moderate: Solubility (Solubility; in CH3CN) | Solubility (Solubility; in MeOH) | Solubility (Solubility; in ethyl acetate)
1.6 µg/mL: MIC (Ent. faecium van R1) | MIC (Ent. faecalis D 65)
Insoluble: Solubility (Solubility; in H2O) | Solubility (Solubility; in hexane) | Solubility (Solubility; in petroleum ether (40-60° C.))
active: activity in treatment of infected experimental animals (staphylococci) | activity in treatment of infected experimental animals (streptococci) | activity against gram-positive bacteria (gram-positive bacteria)
Very soluble: Solubility (Solubility; in CH2Cl2) | Solubility (Solubility; in CHCl3) | Solubility (Solubility; in DMSO)

From US5270182A, “Antibiotic compounds and their production” (Hoechst Aktiengesellschaft, priority 1991, dated 1993)
